SMILES strings stand for the structures. Bounds are passed on as bounds.

One assay addresses TYK2 (Homo sapiens (Human), UniProt P29597). In words: Tyk2 activity inhibition assay (radioactive kinase assay / Caliper assay). Format: biochemical. An outline of the steps:
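Radiometric format: TYK2 with peptide substrate (20 μM) and 33P-ATP at 10 μM in HEPES pH 7.5, 1% DMSO, 120 min at room temp, P81 paper capture. Caliper mobility-shift format: TYK2 9.75 nM, peptide 30 at 3 uM, ATP 16 uM (also 1 mM), 25 min at 28° C.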

For the next assay, the target named is JAK2 (Homo sapiens (Human), UniProt O60674). The experiment in a line: JAK2 activity inhibition assay (radioactive kinase assay / Caliper assay). Format: biochemical. The note with it: read-out: JAK2 Ki. An outline of the steps:
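Mobility-shift (Caliper) read-out of phosphorylated peptide substrate. Compound diluted in 25 mM HEPES pH 7.5, 0.01% Brij-35, 0.01% Triton, 0.5 mM EGTA; enzyme added, then peptide plus ATP in 10 mM MgCl2. Incubated 25 min at 28° C, stopped with EDTA buffer.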

JAK2, sequence (O60674 whole entry): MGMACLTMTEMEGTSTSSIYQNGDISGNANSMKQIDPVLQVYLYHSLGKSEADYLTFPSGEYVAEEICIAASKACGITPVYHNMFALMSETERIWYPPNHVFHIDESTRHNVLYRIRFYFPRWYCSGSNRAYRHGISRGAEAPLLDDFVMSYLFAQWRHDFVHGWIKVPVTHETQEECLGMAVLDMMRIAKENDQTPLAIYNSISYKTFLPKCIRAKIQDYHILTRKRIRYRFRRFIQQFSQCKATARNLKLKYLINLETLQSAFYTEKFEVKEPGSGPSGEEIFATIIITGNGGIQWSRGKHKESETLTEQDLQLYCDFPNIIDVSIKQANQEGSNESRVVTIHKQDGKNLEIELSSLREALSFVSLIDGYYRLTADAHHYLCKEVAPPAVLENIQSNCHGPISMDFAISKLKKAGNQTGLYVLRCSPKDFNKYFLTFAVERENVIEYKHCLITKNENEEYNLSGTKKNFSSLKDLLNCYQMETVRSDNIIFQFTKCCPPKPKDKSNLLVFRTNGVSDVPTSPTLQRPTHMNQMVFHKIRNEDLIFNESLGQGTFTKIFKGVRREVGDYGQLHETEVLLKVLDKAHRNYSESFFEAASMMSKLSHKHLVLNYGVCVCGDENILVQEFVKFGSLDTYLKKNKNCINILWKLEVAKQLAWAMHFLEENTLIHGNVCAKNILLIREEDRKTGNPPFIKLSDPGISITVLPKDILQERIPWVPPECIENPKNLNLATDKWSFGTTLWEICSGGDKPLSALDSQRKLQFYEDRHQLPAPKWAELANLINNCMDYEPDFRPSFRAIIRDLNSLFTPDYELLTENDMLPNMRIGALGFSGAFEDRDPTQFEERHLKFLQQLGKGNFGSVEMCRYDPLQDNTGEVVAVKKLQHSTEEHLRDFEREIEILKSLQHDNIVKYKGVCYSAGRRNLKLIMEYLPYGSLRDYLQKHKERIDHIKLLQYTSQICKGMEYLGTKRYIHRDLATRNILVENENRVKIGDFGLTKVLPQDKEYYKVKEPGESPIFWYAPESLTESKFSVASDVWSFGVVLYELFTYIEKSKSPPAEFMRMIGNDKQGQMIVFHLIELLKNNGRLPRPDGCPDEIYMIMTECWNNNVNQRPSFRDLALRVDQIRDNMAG
TYK2, sequence (P29597 whole entry): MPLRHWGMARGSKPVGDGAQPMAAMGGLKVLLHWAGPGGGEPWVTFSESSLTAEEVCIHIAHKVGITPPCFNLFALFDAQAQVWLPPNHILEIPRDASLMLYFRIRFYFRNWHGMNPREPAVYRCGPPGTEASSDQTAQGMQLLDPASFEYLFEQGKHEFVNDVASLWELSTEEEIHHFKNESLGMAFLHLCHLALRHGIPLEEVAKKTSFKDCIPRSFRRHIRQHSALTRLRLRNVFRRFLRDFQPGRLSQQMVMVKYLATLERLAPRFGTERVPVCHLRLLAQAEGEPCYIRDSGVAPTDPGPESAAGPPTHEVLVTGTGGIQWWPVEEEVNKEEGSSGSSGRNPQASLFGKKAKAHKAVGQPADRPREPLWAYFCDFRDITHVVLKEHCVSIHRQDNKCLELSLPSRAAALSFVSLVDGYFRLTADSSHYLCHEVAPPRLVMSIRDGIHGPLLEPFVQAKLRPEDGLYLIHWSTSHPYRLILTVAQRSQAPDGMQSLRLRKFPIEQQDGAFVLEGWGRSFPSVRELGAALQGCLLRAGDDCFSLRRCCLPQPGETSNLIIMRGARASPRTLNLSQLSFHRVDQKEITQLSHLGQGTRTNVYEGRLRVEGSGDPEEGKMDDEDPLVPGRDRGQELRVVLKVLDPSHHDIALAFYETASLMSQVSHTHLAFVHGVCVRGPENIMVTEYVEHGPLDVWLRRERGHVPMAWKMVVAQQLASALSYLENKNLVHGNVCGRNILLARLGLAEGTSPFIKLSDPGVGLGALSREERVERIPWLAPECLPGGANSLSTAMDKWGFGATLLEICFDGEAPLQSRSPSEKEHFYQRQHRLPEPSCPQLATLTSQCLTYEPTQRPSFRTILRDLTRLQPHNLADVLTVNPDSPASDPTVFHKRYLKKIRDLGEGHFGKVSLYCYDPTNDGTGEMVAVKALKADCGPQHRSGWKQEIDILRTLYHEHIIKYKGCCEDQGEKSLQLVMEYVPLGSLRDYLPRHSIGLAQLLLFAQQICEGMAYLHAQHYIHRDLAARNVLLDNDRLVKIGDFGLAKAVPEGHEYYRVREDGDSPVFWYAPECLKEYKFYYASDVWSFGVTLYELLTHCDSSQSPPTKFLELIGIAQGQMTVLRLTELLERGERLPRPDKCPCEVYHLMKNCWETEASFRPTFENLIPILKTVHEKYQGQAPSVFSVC

With `O=C(NC1CCOCC1)c1ccc(Nc2cc(-c3c(F)cccc3F)nc3c2C(=O)NC3)nc1` [Compound I-139, 6-((2-(2,6-difluorophenyl)-5-oxo-6,7-dihydro-5H-pyrrolo[3,4-b]pyridin-4-yl)amino)-N-(tetrahydro-2H-pyran-4-yl)nicotinamide], the Ki on TYK2 is under 10 nM; on JAK2 it was 10 to 100 nM.

`N[C@H]1CCCN(c2ccc(Nc3cc(-c4c(F)cccc4F)nc4c3C(=O)NC4)nc2)C1` [Compound I-143, (S)-4-((5-(3-aminopiperidin-1-yl)pyridin-2-yl)amino)-2-(2,6-difluorophenyl)-6,7-dihydro-5H-pyrrolo[3,4-b]pyridin-5-one]: the Ki is under 10 nM on TYK2 and 10 to 100 nM at JAK2.

On to `COc1ccc(Nc2cc(-c3c(F)cccc3Cl)nc3c2C(=O)NC3)nc1` [Compound I-145, 2-(2-chloro-6-fluorophenyl)-4-((5-methoxypyridin-2-yl)amino)-6,7-dihydro-5H-pyrrolo[3,4-b]pyridin-5-one], for which the Ki was under 10 nM on TYK2 and 10 to 100 nM at JAK2.

Turning to `O=C1NCc2nc(-c3c(F)cccc3F)nc(Nc3ccc(C4CCN(CCO)C4=O)cc3)c21` (stereo not drawn) [Compound I-149, 2-(2,6-difluorophenyl)-4-((4-(1-(2-hydroxyethyl)-2-oxopyrrolidin-3-yl)phenyl)amino)-6,7-dihydro-5H-pyrrolo[3,4-d]pyrimidin-5-one], the results for the Ki on TYK2 and at JAK2 were under 10 nM and 100 to 1000 nM, respectively.

For the compound `CN1CC[C@@](C)(c2ccc(Nc3nc(-c4c(F)cccc4F)nc4c3C(=O)NC4)cc2)C1=O` [Compound I-151, (S)-2-(2,6-difluorophenyl)-4-((4-(1,3-dimethyl-2-oxopyrrolidin-3-yl)phenyl)amino)-6,7-dihydro-5H-pyrrolo[3,4-d]pyrimidin-5-one], the inhibition constant (Ki) on TYK2 is under 10 nM; on JAK2, 100 to 1000 nM.

Regarding `CN1CC[C@](C)(c2ccc(Nc3nc(-c4c(F)cccc4F)nc4c3C(=O)NC4)cc2)C1=O` [Compound I-152, (R)-2-(2,6-difluorophenyl)-4-((4-(1,3-dimethyl-2-oxopyrrolidin-3-yl)phenyl)amino)-6,7-dihydro-5H-pyrrolo[3,4-d]pyrimidin-5-one], the figures for the Ki on TYK2 and on JAK2 were under 10 nM and 100 to 1000 nM, respectively.

`O=C1NCc2nc(-c3c(F)cccc3F)nc(Nc3ccc(C4CCCNC4=O)cc3)c21` (stereo not drawn) [Compound I-153, 2-(2,6-difluorophenyl)-4-((4-(2-oxopiperidin-3-yl)phenyl)amino)-6,7-dihydro-5H-pyrrolo[3,4-d]pyrimidin-5-one]: the results for the Ki at TYK2 and at JAK2 were under 10 nM and 100 to 1000 nM, respectively.

With `O=C1NCc2nc(-c3c(F)cccc3F)nc(Nc3ccc([C@@H]4CCCNC4=O)cc3)c21` [Compound I-155, (S)-2-(2,6-difluorophenyl)-4-((4-(2-oxopiperidin-3-yl)phenyl)-amino)-6,7-dihydro-5H-pyrrolo[3,4-d]pyrimidin-5-one], the Ki on TYK2 is under 10 nM; at JAK2, 100 to 1000 nM.

Regarding `O=C(O)c1ccc(Nc2nc(-c3c(F)cccc3F)nc3c2C(=O)NC3)cc1` [Compound I-156, 4-((2-(2,6-difluorophenyl)-5-oxo-6,7-dihydro-5H-pyrrolo[3,4-d]pyrimidin-4-yl)amino)benzoicacid], the values for the Ki on TYK2 and on JAK2 were under 10 nM and 100 to 1000 nM, respectively.

Take `O=C1NCc2nc(-c3c(F)cccc3F)nc(Nc3ccc(C(=O)N4CC5(COC5)C4)cc3)c21` [Compound I-157, 4-((4-(2-oxa-6-azaspiro[3.3]heptane-6-carbonyl)phenyl)amino)-2-(2,6-difluorophenyl)-6,7-dihydro-5H-pyrrolo[3,4-d]pyrimidin-5-one]: the inhibition constant (Ki) lay within 10 to 100 nM at TYK2 and 100 to 1000 nM on JAK2.

On to `O=C1NCc2nc(-c3c(F)cccc3F)nc(Nc3ccc(C(=O)N4CCC4)cc3)c21` [Compound I-158, 4-((4-(azetidine-1-carbonyl)phenyl)amino)-2-(2,6-difluoro-phenyl)-6,7-dihydro-5H-pyrrolo[3,4-d]pyrimidin-5-one], for which the inhibition constant Ki at TYK2 fell in the range of 10 to 100 nM; on JAK2 it was 100 to 1000 nM.

On to `N[C@@H]1CCCN(c2ccc(Nc3cc(-c4c(F)cccc4F)nc4c3C(=O)NC4)nc2)C1` [Compound I-159, (R)-4-((5-(3-aminopiperidin-1-yl)pyridin-2-yl)amino)-2-(2,6-difluorophenyl)-6,7-dihydro-5H-pyrrolo[3,4-b]pyridin-5-one], for which the Ki on TYK2 and on JAK2 was under 10 nM in each case.

As to `Cn1cc(Nc2nc(-c3c(F)cccc3F)nc3c2C(=O)NC3)cn1` [Compound I-160, 2-(2,6-difluorophenyl)-4-((1-methyl-1H-pyrazol-4-yl)amino)-6,7-dihydro-5H-pyrrolo[3,4-d]pyrimidin-5-one], the Ki on TYK2 is 10 to 100 nM; at JAK2, over 1000 nM.

Regarding `O=C1NCc2nc(-c3c(F)cccc3F)cc(Nc3ccc(N4CCNCC4)cn3)c21` [Compound I-162, 2-(2,6-difluorophenyl)-4-((5-(piperazin-1-yl)pyridin-2-yl)amino)-6,7-dihydro-5H-pyrrolo[3,4-b]pyridin-5-one], the results for the Ki at TYK2 and at JAK2 were under 10 nM and 10 to 100 nM, respectively.

Regarding `O=C(NCCO)c1ccc(Nc2cc(-c3c(F)cccc3F)nc3c2C(=O)NC3)nc1` [Compound I-164, 6-((2-(2,6-difluorophenyl)-5-oxo-6,7-dihydro-5H-pyrrolo[3,4-b]pyridin-4-yl)amino)-N-(2-hydroxyethyl)nicotinamide], the Ki on TYK2 is under 10 nM; at JAK2 it was 10 to 100 nM.

Take `O=C1NCc2nc(-c3c(F)cccc3F)nc(Nc3ccc(C(=O)N4CC(O)C4)cc3)c21` [Compound I-168, 2-(2,6-difluorophenyl)-4-((4-(3-hydroxyazetidine-1-carbo-nyl)phenyl)amino)-6,7-dihydro-5H-pyrrolo[3,4-d]pyrimidin-5-one]: the inhibition constant (Ki) is under 10 nM on TYK2 and 100 to 1000 nM on JAK2.

On to `CC1(c2ccc(Nc3nc(-c4c(F)cccc4F)nc4c3C(=O)NC4)cc2)NC(=O)NC1=O` (stereo not drawn) [Compound I-172, 5-(4-((2-(2,6-difluorophenyl)-5-oxo-6,7-dihydro-5H-pyrrolo[3,4-d]pyrimidin-4-yl)amino)phenyl)-5-methylimidazolidine-2,4-dione], for which the inhibition constant Ki on TYK2 is under 10 nM; on JAK2 it was 10 to 100 nM.

`C[C@@]1(c2ccc(Nc3nc(-c4c(F)cccc4F)nc4c3C(=O)NC4)cc2)NC(=O)NC1=O` [Compound I-173, (S)-5-(4-((2-(2,6-difluorophenyl)-5-oxo-6,7-dihydro-5H-pyrrolo[3,4-d]pyrimidin-4-yl)amino)phenyl)-5-methylimidazolidine-2,4-dione]: the Ki at TYK2 is under 10 nM; at JAK2, 10 to 100 nM.

Consider `C[C@]1(c2ccc(Nc3nc(-c4c(F)cccc4F)nc4c3C(=O)NC4)cc2)NC(=O)NC1=O` [Compound I-174, (R)-5-(4-((2-(2,6-difluorophenyl)-5-oxo-6,7-dihydro-5H-pyrrolo[3,4-d]pyrimidin-4-yl)amino)phenyl)-5-methylimidazolidine-2,4-dione], for which the Ki on TYK2 is under 10 nM; on JAK2 it was 10 to 100 nM.

In the case of `CCOC(=O)C(C)(C)c1ccc(Nc2nc(-c3c(F)cccc3F)nc3c2C(=O)NC3)cc1` [Compound I-178, ethyl 2-(4-((2-(2,6-difluorophenyl)-5-oxo-6,7-dihydro-5H-pyrrolo[3,4-d]pyrimidin-4-yl)amino)phenyl)-2-methylpropanoate], the Ki was under 10 nM on TYK2 and 100 to 1000 nM at JAK2.

As to `O=C1NCc2nc(-c3c(F)cccc3F)nc(Nc3ccccc3)c21` [Compound I-179, 2-(2,6-difluorophenyl)-4-(phenylamino)-6,7-dihydro-5H-pyrrolo[3,4-d]pyrimidin-5-one], the Ki lay in the range of 10 to 100 nM at TYK2 and 100 to 1000 nM on JAK2.

As for `O=C1NCc2nc(-c3c(F)cccc3F)nc(Nc3ccc(Cl)cc3)c21` [Compound I-180, 4-((4-chlorophenyl)amino)-2-(2,6-difluorophenyl)-6,7-dihydro-5H-pyrrolo[3,4-d]pyrimidin-5-one], the Ki at TYK2 is 10 to 100 nM; on JAK2, over 1000 nM.

`COc1ccc(Nc2nc(N3[C@H](C)CCC[C@@H]3C)nc3c2C(=O)NC3)cc1` [Compound I-183, 2-((2R,6S)-2,6-dimethylpiperidin-1-yl)-4-((4-methoxyphenyl)amino)-6,7-dihydro-5H-pyrrolo[3,4-d]pyrimidin-5-one]: the Ki on TYK2 was under 10 nM; at JAK2, 10 to 100 nM.

As to `COCCOc1ccc(Nc2nc(-c3c(F)cccc3F)nc3c2C(=O)NC3)cc1` [Compound I-185, 2-(2,6-difluorophenyl)-4-((4-(2-methoxy-ethoxy)-phenyl)amino)-6,7-dihydro-5H-pyrrolo[3,4-d]pyrimidin-5-one], the Ki on TYK2 is under 10 nM; at JAK2 it was 100 to 1000 nM.

For `O=C(O)Cc1ccc(Nc2cc(-c3c(F)cccc3F)nc3c2C(=O)NC3)nc1` [Compound I-186, 2-(6-((2-(2,6-difluorophenyl)-5-oxo-6,7-dihydro-5H-pyrrolo[3,4-b]pyridin-4-yl)amino)pyridin-3-yl)acetic Acid], the Ki on TYK2 was under 10 nM; on JAK2, 100 to 1000 nM.

As to `CN1CC2(C1)CN(c1ccc(Nc3cc(-c4c(F)cccc4F)nc4c3C(=O)NC4)nc1)C2` [Compound I-187, 2-(2,6-difluorophenyl)-4-((5-(6-methyl-2,6-diazaspiro-[3.3]heptan-2-yl)pyridin-2-yl)amino)-6,7-dihydro-5-pyrrolo[3,4-b]pyridin-5-one], the inhibition constant Ki was under 10 nM at TYK2 and 10 to 100 nM on JAK2.

Turning to `CC(C(=O)O)c1ccc(Nc2nc(-c3c(F)cccc3F)nc3c2C(=O)NC3)cc1` (stereo not drawn) [Compound I-189, 2-(4-((2-(2,6-difluorophenyl)-5-oxo-6,7-dihydro-5H-pyrrolo[3,4-d]pyrimidin-4-yl)amino)phenyl)propanoic Acid], the Ki at TYK2 is under 10 nM; on JAK2, 100 to 1000 nM.

The term Ki denotes the equilibrium dissociation constant of an inhibitor or competing ligand from its target.

The values are drawn from patent US10196390B2, “TYK2 inhibitors and uses thereof” (Nimbus Lakshmi, Inc., priority 2014, dated 2019).
